Experimental data as given in ChEMBL document CHEMBL3217454, “Structureactivity relationship studies using peptide arrays: the example of HIV-1 Revintegrase interaction” (Medchemcomm, 2013).
Square brackets hold non-standard residues; d marks the D form. Peptide text beside a SMILES is read from it. NMeF = CN[C@@H](Cc1ccccc1)C(=O)O; NMeT = CN[C@H](C(=O)O)[C@@H](C)O; NMeV = CN[C@H](C(=O)O)C(C)C; NMeS = CN[C@@H](CO)C(=O)O; Sar = CNCC(=O)O

Assays:
[1] = tested on: Human immunodeficiency virus 1; assay: Binding affinity to HLT-tagged HIV-1 Rev measured after overnight incubation by chemiluminescence analysis relative to IN 118-128; set-up: concentration or dose not given beside the values
[2] = biological target: Human immunodeficiency virus type 1 integrase (Human immunodeficiency virus 1) (UniProt Q7ZJM1); assay: Binding affinity to HIV-1 integrase measured after overnight incubation by chemiluminescence analysis relative to IN 118-128; set-up: concentration or dose not given beside the values
Chain of Human immunodeficiency virus type 1 integrase (Human immunodeficiency virus 1) (Q7ZJM1 as listed by the source): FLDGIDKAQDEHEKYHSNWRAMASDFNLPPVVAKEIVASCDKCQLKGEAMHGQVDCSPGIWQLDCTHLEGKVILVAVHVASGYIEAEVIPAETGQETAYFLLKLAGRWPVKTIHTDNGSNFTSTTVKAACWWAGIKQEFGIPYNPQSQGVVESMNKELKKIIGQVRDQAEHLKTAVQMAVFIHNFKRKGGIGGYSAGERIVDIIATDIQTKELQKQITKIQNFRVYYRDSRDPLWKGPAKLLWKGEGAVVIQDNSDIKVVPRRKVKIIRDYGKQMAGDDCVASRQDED

Row | SMILES | Activity [1] | Activity [2]
1 | CC(C)[C@@H](C(=O)N[C@@H](CCCCN)C(=O)N[C@@H](C)C(=O)O)N(C)C(=O)[C@@H](NC(=O)[C@@H](NC(=O)[C@H](CO)NC(=O)[C@@H](NC(=O)[C@H](Cc1ccccc1)NC(=O)[C@H](CC(N)=O)NC(=O)[C@H](CO)NC(=O)CN)[C@@H](C)O)[C@@H](C)O)[C@@H](C)O (H-GSNFTSTT[NMeV]KA-OH) | 215% | 273%
2 | CC(C)[C@H](NC(=O)[C@H]([C@@H](C)O)N(C)C(=O)[C@@H](NC(=O)[C@H](CO)NC(=O)[C@@H](NC(=O)[C@H](Cc1ccccc1)NC(=O)[C@H](CC(N)=O)NC(=O)[C@H](CO)NC(=O)CN)[C@@H](C)O)[C@@H](C)O)C(=O)N[C@@H](CCCCN)C(=O)N[C@@H](C)C(=O)O (H-GSNFTST[NMeT]VKA-OH) | 168% | 265%
3 | CC(C)[C@H](NC(=O)[C@@H](NC(=O)[C@H]([C@@H](C)O)N(C)C(=O)[C@H](CO)NC(=O)[C@@H](NC(=O)[C@H](Cc1ccccc1)NC(=O)[C@H](CC(N)=O)NC(=O)[C@H](CO)NC(=O)CN)[C@@H](C)O)[C@@H](C)O)C(=O)N[C@@H](CCCCN)C(=O)N[C@@H](C)C(=O)O (H-GSNFTS[NMeT]TVKA-OH) | 197% | 249%
4 | CC(C)[C@H](NC(=O)[C@@H](NC(=O)[C@@H](NC(=O)[C@H](CO)N(C)C(=O)[C@@H](NC(=O)[C@H](Cc1ccccc1)NC(=O)[C@H](CC(N)=O)NC(=O)[C@H](CO)NC(=O)CN)[C@@H](C)O)[C@@H](C)O)[C@@H](C)O)C(=O)N[C@@H](CCCCN)C(=O)N[C@@H](C)C(=O)O (H-GSNFT[NMeS]TTVKA-OH) | 279% | 312%
5 | CC(C)[C@H](NC(=O)[C@@H](NC(=O)[C@@H](NC(=O)[C@H](CO)NC(=O)[C@H]([C@@H](C)O)N(C)C(=O)[C@H](Cc1ccccc1)NC(=O)[C@H](CC(N)=O)NC(=O)[C@H](CO)NC(=O)CN)[C@@H](C)O)[C@@H](C)O)C(=O)N[C@@H](CCCCN)C(=O)N[C@@H](C)C(=O)O (H-GSNF[NMeT]STTVKA-OH) | 200% | 165%
6 | CC(C)[C@H](NC(=O)[C@@H](NC(=O)[C@@H](NC(=O)[C@H](CO)NC(=O)[C@@H](NC(=O)[C@H](Cc1ccccc1)N(C)C(=O)[C@H](CC(N)=O)NC(=O)[C@H](CO)NC(=O)CN)[C@@H](C)O)[C@@H](C)O)[C@@H](C)O)C(=O)N[C@@H](CCCCN)C(=O)N[C@@H](C)C(=O)O (H-GSN[NMeF]TSTTVKA-OH) | 177% | 195%
7 | CC(C)[C@H](NC(=O)[C@@H](NC(=O)[C@@H](NC(=O)[C@H](CO)NC(=O)[C@@H](NC(=O)[C@H](Cc1ccccc1)NC(=O)[C@H](CC(N)=O)NC(=O)[C@H](CO)N(C)C(=O)CN)[C@@H](C)O)[C@@H](C)O)[C@@H](C)O)C(=O)N[C@@H](CCCCN)C(=O)N[C@@H](C)C(=O)O (H-G[NMeS]NFTSTTVKA-OH) | 293% | 182%
8 | CC(C)[C@H](NC(=O)[C@@H](NC(=O)[C@@H](NC(=O)[C@H](CO)NC(=O)[C@@H](NC(=O)[C@H](Cc1ccccc1)NC(=O)[C@@H](N)CC(N)=O)[C@@H](C)O)[C@@H](C)O)[C@@H](C)O)C(=O)N[C@@H](CCCCN)C(=O)N[C@@H](C)C(=O)O (H-NFTSTTVKA-OH) | 152% | 119%
9 | CC(C)[C@H](NC(=O)[C@@H](NC(=O)[C@@H](NC(=O)[C@H](CO)NC(=O)[C@@H](NC(=O)[C@H](Cc1ccccc1)NC(=O)[C@H](CC(N)=O)NC(=O)[C@@H](N)CO)[C@@H](C)O)[C@@H](C)O)[C@@H](C)O)C(=O)N[C@@H](CCCCN)C(=O)N[C@@H](C)C(=O)O (H-SNFTSTTVKA-OH) | 177% | 207%
10 | CC(C)[C@H](NC(=O)[C@@H](NC(=O)[C@@H](NC(=O)[C@@H](N)CO)[C@@H](C)O)[C@@H](C)O)C(=O)N[C@@H](CCCCN)C(=O)N[C@@H](C)C(=O)O (H-STTVKA-OH) | 187% | 144%
11 | CC(C)[C@H](NC(=O)[C@@H](NC(=O)[C@@H](NC(=O)[C@H](CO)NC(=O)[C@@H](N)[C@@H](C)O)[C@@H](C)O)[C@@H](C)O)C(=O)N[C@@H](CCCCN)C(=O)N[C@@H](C)C(=O)O (H-TSTTVKA-OH) | 111% | 135%
12 | CNCC(=O)N[C@@H](CO)C(=O)N[C@@H](CC(N)=O)C(=O)N[C@@H](Cc1ccccc1)C(=O)N[C@H](C(=O)N[C@@H](CO)C(=O)N[C@H](C(=O)N[C@H](C(=O)N[C@H](C(=O)N[C@@H](CCCCN)C(=O)N[C@@H](C)C(=O)O)C(C)C)[C@@H](C)O)[C@@H](C)O)[C@@H](C)O (H-[Sar]SNFTSTTVKA-OH) | 294% | 181%
